From US20050214870A1, “Assay” (priority 2001, published 2005)

Experiments:
[1] = cited from earlier work
human HERG K+ channel [2] = target: T1, human HERG K+ channel (Homo sapiens, UniProt Q12809)
Method: (§1) Adherent HEK293 cells expressing human HERG, were grown in MEM Earles medium (Life Technologies) supplemented with 10% foetal calf serum (PAA Laboratories), 2 mM L-glutamine (Sigma), 1 mM sodium pyruvate (Sigma), 0.4 mg/ml G418 (Life Technologies) and an addition of 1× non-essential amino acids (Life Technologies). The cells were grown at 37° C. in a humidified atmosphere with 5% CO2 in T225 cm^3 flasks.
(§2) All cells were pelleted, washed twice with PBS and snap-frozen on dry ice prior to storage at −80° C. until required.
(§3) Cell membrane fractions were prepared from frozen aliquots of cells. All procedures were carried out at 4° C. unless otherwise stated. Frozen aliquots of cells were thawed at room temperature and resuspended in homogenisation buffer (50 mM Tris base, 10 mM KCl, 1-1.2 mM MgCl2, pH 7.4). The cells were then disrupted by homogenisation in an Omni LabTek homogeniser at 20,000 rpm for 30 seconds. The homogenate was centrifuged for 20 minutes at 48,000×g (4° C., Sorvall RC5B centrifuge) and the supernatant removed. […] Protein content was determined using a Coomassie Blue based protein assay kit. […]
In each experiment, triplicate assays were routinely performed and the data were averaged. Specific binding was analysed by nonliiear regression fit using GraphPad Prism software (GraphPad, San Diego). […]

human HERG K+ channel [3] = target: T1, human HERG K+ channel; remark: listed apart in the source
Method: as §1, §2, §3
The scintillation proximity assay (SPA) was carried out under identical buffer conditions to those used in the filtration assay. […] Beads were allowed to settle for a minimum of 30 minutes before plates were counted for retained radioactivity on a TopCount NTX scintillation counter.

T1 sequence (Q12809 whole entry): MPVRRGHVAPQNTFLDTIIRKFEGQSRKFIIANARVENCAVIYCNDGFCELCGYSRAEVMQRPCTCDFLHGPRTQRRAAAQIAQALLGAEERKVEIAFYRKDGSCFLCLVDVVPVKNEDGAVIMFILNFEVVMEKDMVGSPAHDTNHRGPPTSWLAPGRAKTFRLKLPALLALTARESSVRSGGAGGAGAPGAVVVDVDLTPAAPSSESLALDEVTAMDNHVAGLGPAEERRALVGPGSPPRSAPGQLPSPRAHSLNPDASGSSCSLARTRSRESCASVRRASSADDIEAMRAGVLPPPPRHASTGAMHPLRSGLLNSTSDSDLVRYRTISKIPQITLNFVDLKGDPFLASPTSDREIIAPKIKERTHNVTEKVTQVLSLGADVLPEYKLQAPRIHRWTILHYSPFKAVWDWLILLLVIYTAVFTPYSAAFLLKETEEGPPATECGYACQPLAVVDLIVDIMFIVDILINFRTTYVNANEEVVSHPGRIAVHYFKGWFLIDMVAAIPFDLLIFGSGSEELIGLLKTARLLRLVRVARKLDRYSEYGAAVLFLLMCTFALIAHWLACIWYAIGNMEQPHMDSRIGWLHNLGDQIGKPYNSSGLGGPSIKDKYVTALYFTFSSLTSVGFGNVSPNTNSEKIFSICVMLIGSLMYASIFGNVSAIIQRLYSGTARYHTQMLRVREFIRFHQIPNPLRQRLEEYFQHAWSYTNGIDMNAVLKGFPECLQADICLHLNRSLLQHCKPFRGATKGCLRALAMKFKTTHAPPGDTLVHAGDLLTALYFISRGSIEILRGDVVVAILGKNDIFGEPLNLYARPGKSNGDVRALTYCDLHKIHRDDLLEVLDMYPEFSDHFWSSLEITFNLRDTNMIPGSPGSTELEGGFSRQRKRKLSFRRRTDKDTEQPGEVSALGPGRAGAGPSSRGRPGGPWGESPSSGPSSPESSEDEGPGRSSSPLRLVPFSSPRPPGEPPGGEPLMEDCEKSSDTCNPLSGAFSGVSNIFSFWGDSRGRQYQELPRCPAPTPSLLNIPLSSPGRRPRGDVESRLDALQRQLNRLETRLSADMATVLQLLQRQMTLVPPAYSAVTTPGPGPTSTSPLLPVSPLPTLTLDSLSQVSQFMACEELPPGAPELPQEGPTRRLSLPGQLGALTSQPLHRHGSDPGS

Structure (SMILES) | effect on QT interval of the electrocardiogram in man [1] | Filter binding pKi (human HERG K+ channel [2]) | SPA 96 pKi (human HERG K+ channel [3]) | SPA 384 pKi (human HERG K+ channel [3])
COc1cc(N)c(Cl)cc1C(=O)NC1CCN(CCCOc2ccc(F)cc2)CC1OC (stereo not shown) [Cisapride] | prolong the QT interval |  |  | 
CC(C)NC[C@@H](O)c1ccc(NS(C)(=O)=O)cc1 [D-Sotalol] |  | <5 | <5 | <5
